Reference: patent US20240043420A1, “7-AZAINDOLE COMPOUNDS FOR INHIBITION OF BCR-ABL TYROSINE KINASES” (EnLiven Therapeutics, Inc., priority 2020, published 2024)

Columns and labels:
K562 cells = assay: K562 cell proliferation assay (CellTiter-Glo); format: cell-based; settings: Homo sapiens, K562, 72 h, CellTiter-Glo viability, read-out: Cell Line (IC50, nM) K562
In short: (§1)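 Cells in IMDM/10% FBS seeded at 2,000 (K562) or 1,500 (HL60) per well, exposed to serially diluted compounds for 72 h at 37 °C, 5% CO2. Viability by CellTiter-Glo luminescence, normalized between DMSO (high) and cell-free media (low) controls.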

ABL1 = target: T1, ABL1 (Homo sapiens, UniProt P00519); assay: Luminescence-based ABL kinase assay (ADP-Glo, 300 μM ATP); format: biochemical
T1 construct: purchased Carna Biosciences
In short: (§2)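 Buffer: 50 mM HEPES pH 7.5, 10 mM MgCl2, 1 mM EGTA, 2 mM DTT, 0.05% BSA. Compound preincubated 30 min at RT with kinase (3.325 nM in enzyme solution), then started with a Peptide 2 (6 μM) and ATP (1.2 mM) solution, both stock levels; 90 min at RT.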

ABL1 (T315I) = ABL1 (T315I) (Homo sapiens, UniProt P00519, T315I); assay: Luminescence-based ABL kinase assay (ADP-Glo, 300 μM ATP), T315I mutant; format: biochemical
In short: as §2

pCRKL in K562 cells = assay: pCRKL ELISA assay in K562 cells; format: cell-based; settings: Homo sapiens, 1.5 h, 90 minutes incubation, read-out: PCRKL ELISA, Cell Line IC50 (nM) K562
Description: (§3) K562 or Ba/F3 ABL T315I cells (2.0*10^5 cells/100 μl/well) were seeded in 96 well (Corning, cat #3799). Compounds were dissolved in DMSO, serially diluted in DMSO and then were added, mixed, and incubated for 90 minutes at 37° C., 5% CO2. Following the 90-minute incubation, plates were centrifuged for 5 min at 3000 RPM and supernatant was removed from each well. Cells were washed 3 times with 150 μl PBS prior to addition of 100 μl cell RIPA lysis buffer (Boston BioProducts, cat #BP-115D) supplied with 1×complete ULTRA cocktail inhibitor (Roche, 05892791001) and 1×PhosSTOP Phosphatase Inhibitor Cocktail Tablets (Roche, 04906837001). Cells were incubated with lysis buffer for 1 hour at 4° C. prior to storage at −80 C.
(§4) A capture antibody able to detect phosphorylated and non-phosphorylated CRKL (R&D Systems, cat #AF5127) was added to Meso Scale Discovery (MSD) standard bind plates (MSD, cat #L15XA-3) at 5 ug/mL and incubated at 4° C. overnight. The next day, plates were washed with PBS+0.05% Tween20 (PBST) and 150 μl of 5% BSA blocking solution was added for 1 hour at room temperature with shaking. Plates were washed with PBST. Lysates were thawed and 30 μl of lysate was added to the MSD plates and incubated for 2 hours at room temperature with shaking. MSD plates were washed with PBST and 30 μl of a detection antibody that binds phosphorylated pCRKL (R&D Systems, cat #MAB6910) was added at 1 μg/mL to each well. Plates were incubated for 1 hour at room temperature with shaking. Plates were washed with PBST prior to addition of 30 μl of a sulfo tagged goat anti mouse detection antibody (MSD cat #R32AC-1). Plates were incubated for 1 hour at room temperature with shaking. Plates were washed with PBST prior to addition of 150 ul of 1×MSD read buffer T (MSD, cat 4R92TC-2). Electrochemiluminescence (ECLU) was read on an MSD plate reader (Meso Scale Discovery). The remaining activity by calculated as follows: 00 Relative activity=100×(ELCUsample−ECLULC)/(ECLUHC−ECLULC). The low and high controls (LC/HC) are generated from lysate from wells without cells or with cells treated with 0.1% DMSO, respectively. IC50 values were calculated using XLFit software using a nonlinear regression model with a sigmoidal dose response and are shown in Table 4 and Table 5 below.

[1] = system: pCRKL in Ba/F3 ABL1 (T315I) cells; assay: pCRKL ELISA assay in Ba/F3 ABL T315I cells; format: cell-based; settings: Mus musculus, BaF3, 1.5 h, 90 minutes incubation, read-out: pCRKL ELISA, Cell Line IC50 (nM) Ba/F3 ABL1 (T315I)
Description: as §3, §4

HL60 cells = assay: HL60 cell proliferation assay (CellTiter-Glo); format: cell-based; settings: Homo sapiens, HL-60, 72 h, CellTiter-Glo viability, read-out: Cell Line (IC50, nM) HL60
In short: as §1

IC50 (K562 cells) | IC50 (ABL1) | IC50 (ABL1 (T315I)) | IC50 (pCRKL in K562 cells) | IC50 [1] | IC50 (HL60 cells) | Structure (SMILES)
40.5 nM | 5.42 nM | 1.73 nM | 453 nM | 1460 nM |  | COc1cccc(OC)c1-c1c[nH]c2nc(NC(=O)C3CC3CN3CCNCC3)ccc12 (single isomer, unassigned) [Example S150, Enantiomer 1, N-[3-(2,6-dimethoxyphenyl)-1H-pyrrolo[2,3-b]pyridin-6-yl]-2-(piperazin-1-ylmethyl)cyclopropane-1-carboxamide]
156 nM | 29 nM | 20.2 nM | 164 nM | 183 nM | > 10000 nM | COc1ncccc1-c1c[nH]c2nc(NC(=O)[C@@H]3C[C@@H]3F)ccc12 [Compound 27, (1S,2S)-2-fluoro-N-(3-(2-methoxypyridin-3-yl)-1H-pyrrolo[2,3-b]pyridin-6-yl)cyclopropane-1-carboxamide]
88.4 nM | 14.3 nM | 16.3 nM | 95.8 nM | 198 nM | > 10000 nM | COc1ccccc1-c1n[nH]c2nc(NC(=O)[C@@H]3C[C@@H]3F)ccc12 [Compound 54, (1S,2S)-2-fluoro-N-[3-(2-methoxyphenyl)-1H-pyrazolo[3,4-b]pyridin-6-yl]cyclopropane-1-carboxamide]
54.6 nM | 15.1 nM | 17.6 nM | 86.3 nM | 162 nM | > 10000 nM | COc1ccnc(OC)c1-c1c[nH]c2nc(NC(=O)[C@@H]3C[C@@H]3F)ccc12 [Compound 75, (1S,2S)—N-[3-(2,4-dimethoxypyridin-3-yl)-1H-pyrrolo[2,3-b]pyridin-6-yl]-2-fluorocyclopropane-1-carboxamide]
35.8 nM | 5.14 nM | 7.38 nM | 65.4 nM | 50.1 nM | > 10000 nM | COc1ncc(F)c(OC)c1-c1c[nH]c2nc(NC(=O)[C@@H]3C[C@@H]3F)ccc12 [Compound 76, (1S,2S)-2-fluoro-N-[3-(5-fluoro-2,4-dimethoxypyridin-3-yl)-1H-pyrrolo[2,3-b]pyridin-6-yl]cyclopropane-1-carboxamide]
30.5 nM | 5.97 nM | 5.48 nM |  | 84.2 nM | > 10000 nM | COc1cc2ncsc2cc1-c1c[nH]c2nc(NC(=O)[C@@H]3C[C@@H]3F)ccc12 [Compound 86, (1S,2S)-2-fluoro-N-(3-(5-methoxybenzo[d]thiazol-6-yl)-1H-pyrrolo[2,3-b]pyridin-6-yl)cyclopropane-1-carboxamide]
221 nM | 6.32 nM | 2.14 nM | 656 nM | 429 nM | > 10000 nM | COc1c(-c2c[nH]c3nc(NC(=O)[C@@H]4C[C@@H]4F)ccc23)cc(F)c2[nH]cnc12 [Compound 95, (1S,2S)-2-fluoro-N-(3-(7-fluoro-4-methoxy-1H-benzo[d]imidazol-5-yl)-1H-pyrrolo[2,3-b]pyridin-6-yl)cyclopropanecarboxamide]
106 nM | 16.4 nM | 12.9 nM | 174 nM | 241 nM | > 10000 nM | COc1ccc(F)cc1-c1n[nH]c2nc(NC(=O)[C@@H]3C[C@@H]3F)ccc12 [Compound 98, (1S,2S)-2-fluoro-N-[3-(5-fluoro-2-methoxyphenyl)-1H-pyrazolo[3,4-b]pyridin-6-yl]cyclopropane-1-carboxamide]
142 nM | 49.4 nM | 59.3 nM |  | 1060 nM | > 10000 nM | COc1ncc(F)c(OC)c1-c1c[nH]c2nc(NC(=O)NCCN3CCN(C)CC3)ccc12 [Compound 116, 3-[3-(5-fluoro-2,4-dimethoxypyridin-3-yl)-1H-pyrrolo[2,3-b]pyridin-6-yl]-1-[2-(4-methylpiperazin-1-yl)ethyl]urea]
67.1 nM | 11.3 nM | 9.08 nM |  | 124 nM | > 10000 nM | COc1cccc(OC)c1-c1c[nH]c2nc(NC(=O)NCCN3CCN(C)CC3)ccc12 [Compound 117, 3-[3-(2,6-dimethoxyphenyl)-1H-pyrrolo[2,3-b]pyridin-6-yl]-1-[2-(4-methylpiperazin-1-yl)ethyl]urea]
83.3 nM | 42.7 nM | 28.1 nM | 272 nM |  | > 10000 nM | COc1cccc(OC)c1-c1c[nH]c2nc(NC(=O)NCCCN(C)C)ccc12 [Compound 131, 1-[3-(2,6-dimethoxyphenyl)-1H-pyrrolo[2,3-b]pyridin-6-yl]-3-[3-(dimethylamino)propyl]urea]
9.36 nM | 3.57 nM | 6.1 nM | 278 nM |  | 4040 nM | COc1c(-c2c[nH]c3nc(NC(=O)[C@@H]4C[C@@H]4F)ccc23)cc2scnc2c1F [Compound 133, (1S,2S)-2-fluoro-N-[3-(4-fluoro-5-methoxy-1,3-benzothiazol-6-yl)-1H-pyrrolo[2,3-b]pyridin-6-yl]cyclopropane-1-carboxamide]
165 nM | 24.9 nM | 15.8 nM | 1210 nM |  | > 10000 nM | COc1cccc(OC)c1-c1c[nH]c2nc(NC(=O)NCCN3CCNCC3)ccc12 [Compound 135, 3-[3-(2,6-dimethoxyphenyl)-1H-pyrrolo[2,3-b]pyridin-6-yl]-1-[2-(piperazin-1-yl)ethyl]urea]
120 nM | 51.6 nM | 44.3 nM | 399 nM |  | > 10000 nM | COc1ccc(F)c(OC)c1-c1c[nH]c2nc(NC(=O)NCCN3CCN(C)CC3)ccc12 [Compound 145, 3-[3-(3-fluoro-2,6-dimethoxyphenyl)-1H-pyrrolo[2,3-b]pyridin-6-yl]-1-[2-(4-methylpiperazin-1-yl)ethyl]urea]
9.9 nM | 3.74 nM | 14 nM | 32 nM | 112 nM | > 10000 nM | COc1nc2ncsc2cc1-c1c[nH]c2nc(NC(=O)[C@@H]3C[C@@H]3F)ccc12 [Compound 146, (1S,2S)-2-fluoro-N-(3-[5-methoxy-[1,3]thiazolo[4,5-b]pyridin-6-yl]-1H-pyrrolo[2,3-b]pyridin-6-yl)cyclopropane-1-carboxamide]
16.1 nM | 5.54 nM | 1.71 nM | 35.7 nM | 35.7 nM | > 10000 nM | COc1cc2ncsc2c(F)c1-c1c[nH]c2nc(NC(=O)[C@@H]3C[C@@H]3F)ccc12 [Compound 147, (1S,2S)-2-fluoro-N-(3-(7-fluoro-5-methoxybenzo[d]thiazol-6-yl)-1H-pyrrolo[2,3-b]pyridin-6-yl)cyclopropane-1-carboxamide]
